In one test the test system is cMyc target genes. Kind of test: Genome-wide expression of cMyc target genes and MYC transcription after JQ1 treatment. The class given is cell-based. Here is the method: (§1) To test BET bromodomain inhibitors as a strategy to downregulate the cMyc transcriptional network and the mechanism of downregulation, multiple myeloma cells were treated with JQ1.
A further test has as its system multiple myeloma cells. In words: Antiproliferative effect of JQ1 treatment in multiple myeloma cells. The class given is cell-based. Conditions: multiple myeloma cells treated with JQ1. Here is the method:
as §1

In a further test the test system is cMyc. In words: cMyc protein levels after JQ1 treatment of multiple myeloma cells. It counts as cell-based. Particulars: multiple myeloma cells treated with JQ1. Here is the method: as §1
The target of the next test is BRD4 (Homo sapiens, UniProt O60885). Conditions: MM.1S cells, 500 nM, 24 hours.

Molecules are shown by their SMILES.

Description for BRD4: Approximately 1×10^8 MM1S cells were treated with 500 nM JQ1 or DMSO for 24 hours and crosslinked with 1.1% formaldehyde (10× crosslink solution contains 11% formaldehyde, 50 mM Hepes pH7.3, 100 mM NaCl, 1 mM EDTA p118.0, 0.5 mM EGTA pH8.0) to the growth media followed by two washes with PBS. Cells were scraped and frozen in liquid nitrogen. Brd4 ChIP-PCR analysis was done on these cells following the protocol in Rahl et al. Cell 2010. In brief, 75 ul of Dynal magnetic beads (Sigma) were blocked with 0.5% BSA (w/v) in PBS. Magnetic beads were bound with 6.25 ug of Brd4 antibody (Bethyl Labs, A310-985A, lot A301-985A-1, FIG. 1A or Sigma, HPA015055-100, lot A31530, FIG. 1B). […]
Brd4 ChIP and input DNA were analyzed using SYBR Green real-time PCR analysis (Applied Biosystems). […] Fold enrichment was determined from triplicate PCR reactions at five potential enhancer regions adjacent to the MYC gene in non-translocated cells (MYC_E1, MYC_E2, MYC_E3, MYC_E4, MYC_E5), the MYC transcriptional start site (MYC_TS1, MYC_TS2), IGH enhancer regions (IGH_E1, IGH_E2, IGH_E3, IGH_E4), and two negative regions upstream of the MYC enhancers (MYC_NR2, MYC_NR3) over input DNA using DDCt over the negative region MYC_NR1.

As to `Cc1sc2c(c1C)C(c1ccc(Cl)cc1)=N[C@@H](CC(=O)OC(C)(C)C)c1nnc(C)n1-2` [JQ1, [(S)-4-(4-Chloro-phenyl)-2,3,9-trimethyl-6H-1-thia-5,7,8,9a-tetraaza-cyclopenta[e]azulen-6-yl]-acetic acid tert-butyl ester], the MYC transcription result with cMyc target genes (multiple myeloma cells treated with JQ1) is “early and sustained JQ1-induced suppression of MYC transcription”. Also, the “expression of cMyc target genes” value in the test with cMyc target genes (multiple myeloma cells treated with JQ1, genome-wide) is “genome-wide downregulation of cMyc target genes”. For the same molecule, in the test on multiple myeloma cells, the antiproliferative effect entry is recorded as “potent antiproliferative effect”. Besides, in the test with cMyc, the cMyc protein levels result was “rapid downregulation of cMyc protein levels”. At BRD4, the “BRD4 binding to IgH enhancers and the TSS (ChIP)” value was “significantly depleted BRD4 binding to IgH enhancers and the TSS”.

The values are drawn from US10071129B2, “Method for identifying bromodomain inhibitors” (WHITEHEAD INSTITUTE FOR BIOMEDICAL RESEARCH DANA-FARBER …, priority 2011, dated 2018).
